Experimental findings from paper PMC9313812, “The Pseudo‐Natural Product Rhonin Targets RHOGDI” (Angewandte Chemie (International Ed. in English), 2022) are described below.

As usually defined, the Kd is the equilibrium constant for the complex coming apart.

In test [1] the test system is C3H10T1/2 cells. Nature of the test: Osteoblast differentiation in presence of low or high SAG. Conditions: low and high concentration of SMO agonist SAG. The test is classed as cell-based, mouse. On the procedure:
cilia were stained with an antibody against acetylated tubulin. SMO was marked with an anti-SMO antibody and DAPI was used to stain the nuclei. For quantification of cilia, at least 100 cilia per condition and biological replicate were analyzed for the intensity of anti-acetylated tubulin antibody staining. The results of one representative biological replicate are shown and each data point represents the intensity value of one single cilium. Statistical significance was evaluated using an unpaired t-test with a confidence interval of 95 % (p ≤ n.s.). (d and e) Influence Vismodegib (d) or GANT61 (e) on osteoblast diffe rentation of C3H10T1/2 cells in presence of low (0.1 µM) or high (1 µM) concentration of the SMO agonist SAG. Data are mean values of three independent biological replicates (n= 3) ± SD. (f) Fluorescent polarization measurements were performed by titrating 1 μM TAMRA-GDP-bound RAC1 with increasing […]
µM Rhonin. Data are mean values (n = 3) ± SD. (g) Structure of the lysine-reactive probe […]
(§1) (1 picture or pasted object on this page, not shown here)

The target in test [2] is T1, NIH/3T3 lysate proteins (Mus musculus, UniProt Q99PT1).
T1 construct: endogenous in cells; host or cells: NIH/3T3
Nature of the test: Affinity chromatography (pulldown) with immobilized probes, HRMS label-free quantification and immunoblotting. The test is classed as binding. Conditions: fold excess enriched with active probe 8 vs inactive probe 9. Here is the method:
(§2) Supplementary Table S8. List of proteins enriched by the active probe 8 as identified by means of affinity chromatography. […]
(§3) on NHS ester magnetic beads. NIH/3T3 lysate was passed on to the probes and target protein identification was performed employing HRMS analysis as described in the methods section.
(§4) The ratios indicate the fold excess of protein enriched with the active probe 8 as compared to […]
(§5) Apart from filamin –B and –C and RHOGDI1, all enriched proteins were known frequent binders in pulldown assays.
(§6) Protein name Gene symbol Ratio
(§7) RHO GDP-dissociation inhibitor 1 Arhgdia 33
(§8) Guanine nucleotide -binding protein subunit beta -2-like
(§9) 1;Guanine nucleotide -binding protein subunit beta -2-like 1, N- Gnb2l1 6 […]
(§10) ATPase inhibitor, mitochondrial Atpif1 4
(§11) Hsc70-interacting protein St13 4
(§12) Tropomyosin alpha -4 chain Tpm4 4
(§13) Ribosome-recycling factor, mitochondrial Mrrf 3
(§14) (1 picture or pasted object on this page, not shown here) […]
(§15) intensities was performed by densitometry of scanned signals with the aid of image studio software (Version 4.0.21, LI-COR Biosciences, ©2014). […]
(§16) Cell lysate preparation for chemical proteomics
(§17) NIH/3T3 cells were grown to 90-95% confluence and were then detached using cell dissociation solution for 5 min at 37 °C and 5% CO2. Cells were suspended in cell culture medium and pelleted by centrifugation at 250 x g, 5 min at 4 °C. Cell pellets were then washed thrice with ice-cold PBS and lysed in lysis buffer containing 50 mM PIPES, 50 mM NaCl, 5 mM MgCl2, 5 mM EGTA, 0.1 % NP40, 0.1 % Triton X-100, 0.1 % Tween®20, with freshly added 1 mM DTT, EDTA-free protease inhibitors (Complete EDTA-free, Roche) and phosphatase inhibitors (PhosphoSTOP, Roche). To assure complete cell lysis, the suspension was passed through […] cannula 10 times each and incubated on ice for 40 min with intermittent vortexing every five minutes until a homogeneous mixture was obtained.
(§18) The resulting homogenate was centrifuged at 18,000 x g for 30 min at 4 °C and the supernatant was subsequently snap frozen in liquid nitrogen and stored at -80 °C. Total protein content was determined by DC protein assay (Bio-Rad, Germany).
(§19) Affinity chromatography enrichment of compound-bound proteins
(§20) 25 µL N-hydroxysuccinimide magnetic beads (GE Healthcare) were activated with 500 µL 1 mM HCl for 1 min. HCl was replaced by 500 µL coupling buffer (0.15 M triethanolamine, […]
(§21) incubated for 2 h at room temperature with overhead rotation. The residual active groups of N-hydroxysuccinimide magnetic were quenched by alternating incubation with 500 µL block A buffer (0.5 M ethanolamine, 0.5 M NaCl, pH 8.3) and block B buffer (0.1 M sodium acetate, 0.5 M NaCl, pH 4.0) for 5 min three times each. For protein binding, the magnetic beads were equilibrated with 500 µL lysis buffer followed by incubation with 500 µL lysate (protein concentration: 2 mg/mL) 2 h at 4 °C with overhead rotation. In order to wash out non-specifically bound proteins, the beads were first washed with 500 µL lysis buffer containing 25 mM MgCl2 followed by three times washing with 500 µL PBS. Tryptic digestion of bead-bound proteins was carried out in two stages. First, bound proteins were reduced by incubating the beads with 50 µL reducing buffer (1 mM DTT, 8 M urea in 50 mM Tris (pH 7.5)) at 30 °C for 30 min with shaking. Later, the reduced proteins were alkylated by addition of 5.5 µL alkylating solution (1 mM DTT, 50 mM chloroacetamide, 8 M urea in 50 mM Tris pH 7.5) and further incubation in the dark at 30 °C for 30 min while shaking at 350 rpm. The reduced and alkylated proteins were digested by adding 1 µg LysC at 37 °C for 1 h while shaking at 350 rpm. The supernatant was transferred to a new tube and the beads were further incubated with 50 mM Tris-HCl (pH 7.5) containing 1 µg trypsin at 37 °C for 1 h while shaking at 350 rpm.
(§22) Both supernatants were combined together and further digested by adding 2 µg trypsin for 16 h at 37 °C with continuous shaking. The enzymatic digestion was stopped by addition of 2 µL […]
For orientation: Immunoblotting shows a protein as a band on a membrane.

Test [3] deals with NIH/3T3 lysate proteins. Described as above. The test is classed as binding. Here is the method: as §2, §3, §4, §5, §6, §7, §8, §9, §10, §11, §12, §13, §14, §15, §16, §17, §18, §19, §20, §21, §22
The target of test [4] is RHOGDI1 (Homo sapiens, UniProt P52565). The experiment in a line: Fluorescence polarization binding of probe 10. The note with it: range from Figure 4e; read-out: KD, measured affinity between probe 10 and RHOGDI1. Here is the method: (§23) Fluorescence polarization
(§24) The binding of probe 10 to RHOGDI1-3 was confirmed by fluorescence polarization experiments. RHOGDI1 was titrated against 0.5 µM of the fluorescent Rhonin derivative 10 in buffer containing 20 mM Hepes, pH 7.4, 150 mM NaCl, 5 mM MgCl2, 3 mM DTT and incubated for 1 h. The change in fluorescence polarization was monitored at an excitation / emission wavelengths of 535 nm and 593 nm, respectively. […]
(§25) Protein expression and purification
(§26) RHOGDI1 delta15, RHOGDI1 delta25, RHOGDI1-3 were produced in E. coli (XL1-Blue) as a GST recombinant protein as described previously.[9] In summary, protein were expressed in E.coli BL21 upon addition of IPTG overnight. Cell were collected and lysed in a lysis buffer, containing 30 mM Tris-NaOH pH 7.4, 150 mM NaCl, 1 mM DTT, and 5 mM MgCl2. Cells were further lysed using sonication. After centrifugation (20 min at 20,000 g) of lysate, the clear supernatant was used for purification in an ÄKTAprime system connected to a GSH column […]
(§27) Insect cell purification system was used for expression and purification of prenylated proteins based on an established protocol.[9] Sf9/or TNAO38 insect cells (Sf9 used only for virus generation and amplification) were grown to the level of 1.5×10^6 cells/ml before they were transduced with Baculoviruses encoding genes related to the RHO GTPases. Cells were resuspended in lysis buffer, containing 20 mM HEPES-NaOH pH 7.4, 150 mM NaCl, 2 mM β-mercaptoethanol, 5 mM MgCl2, 0.1 mM GDP, 10 mM imidazole and the optimized detergents including 1% CHAPS and 0.5% sodium cholate .[9] Cells were lysed by s onication in ice. After
Target sequence in this assay (P52565 2-204): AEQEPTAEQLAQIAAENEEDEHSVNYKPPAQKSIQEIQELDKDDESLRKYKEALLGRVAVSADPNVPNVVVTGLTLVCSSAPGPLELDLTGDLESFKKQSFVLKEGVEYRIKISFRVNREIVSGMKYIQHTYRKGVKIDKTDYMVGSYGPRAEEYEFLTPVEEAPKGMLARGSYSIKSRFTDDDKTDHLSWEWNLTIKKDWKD

Test [5] concerns the target T2, RHOGDI1 (Homo sapiens, UniProt P52565).
T2 construct: GST; made in house; host or cells: E. coli (XL1-Blue / BL21)
Nature of the test: Fluorescence polarization binding of probe 10. Conditions: fluorescence polarization; read-out: KD (RHOGDI1Δ15). Here is the method:
as §23, §24, §25, §26, §27
T2 sequence (P52565 16-204): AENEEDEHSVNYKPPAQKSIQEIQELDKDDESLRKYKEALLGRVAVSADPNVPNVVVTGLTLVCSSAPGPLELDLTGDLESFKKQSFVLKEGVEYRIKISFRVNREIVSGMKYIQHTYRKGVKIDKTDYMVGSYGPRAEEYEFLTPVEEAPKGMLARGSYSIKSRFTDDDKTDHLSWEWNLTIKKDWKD

The target of test [6] is T3, RHOGDI2 (Homo sapiens, UniProt P52566).
T3 construct: GST; made in house; host or cells: E. coli (XL1-Blue / BL21)
Nature of the test: Fluorescence polarization binding of probe 10. Here is the method:
as §23, §24, §25, §26, §27
On the technique in general: Polarisation of emitted light reports the rotation of a fluorescent probe.

The target of test [7] is T4, RHOGDI1 (Homo sapiens, UniProt P52565).
T4 construct: GST; made in house; host or cells: E. coli (XL1-Blue / BL21)
The experiment in a line: Fluorescence polarization binding of probe 10. The note with it: fluorescence polarization; read-out: KD (RHOGDI1Δ25). Here is the method: as §23, §24, §25, §26, §27
T4 sequence (P52565 26-204): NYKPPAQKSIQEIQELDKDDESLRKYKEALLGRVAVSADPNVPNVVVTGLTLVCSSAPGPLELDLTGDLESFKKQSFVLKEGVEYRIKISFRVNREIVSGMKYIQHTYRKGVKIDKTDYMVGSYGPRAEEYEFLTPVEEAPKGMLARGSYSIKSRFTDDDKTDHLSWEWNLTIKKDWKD

Test [8] has as its target T5, RHOGDI3 (Homo sapiens, UniProt Q99819).
T5 construct: GST; made in house; host or cells: E. coli (XL1-Blue / BL21)
The experiment in a line: Fluorescence polarization binding of probe 10. Here is the method: as §23, §24, §25, §26, §27

Test [9] addresses T6, PDEδ (Homo sapiens, UniProt O43924).
T6 construct: GST (N); made in house; host or cells: E. coli Rosetta 2
The experiment in a line: Fluorescence polarization, direct binding of probe 10. The note with it: 10 nM probe 10, titration of PDEδ. Here is the method:
RHOGDI1 displaced liposome -bound RAC1 from the surface of L1 chip with a koff of 0.016 […]
bound RAC1. Calculated rate constants by mono-exponential fitting of RU decays were 0.02 and 0.032 s-1 for RHOGDI1-mediated RAC1 displacement from the liposomes in the presence of 7a and 7d, respectively. (d) Competition-based fluorescence polarization experiments were performed by titration of 7a against 10 nM fluorescein-labelled atorvastatin and GST-PDEδ.
(e) Fluorescence polarization experiment using 10 nM probe 10 and titration of PDEδ.
as §1
Label-free quantification (LFQ) intensities were logarithmized (log2) and proteins, which were not three times quantified in at least one of the groups, were filtered off. […]
as §23
The binding of probe 10 to RHOGDI1-3 was confirmed by fluorescence polarization experiments. […] The change in fluorescence polarization was monitored at an excitation / emission wavelengths of 535 nm and 593 nm, respectively. […]
To determine the effect of 7a on the binding of RHOGDI1 to non-prenylated RAC1-GDP, fluorescence polarization measurements were performed by titrating 1 µM TAMRA-GDP-bound RAC1 with increasing concentrations of RHOGDI1 in the presence and absence of 50 µM 7a in buffer containing 30 mM Tris-HCl, pH 7.5, 150 mM NaCl, 5 mM MgCl2, 1% DMSO. […]

[10] abbreviates: fold excess enriched with active probe 8 vs inactive probe 9.

Read-outs that look alike come from different tables or passages of the source.

T6 sequence (O43924 whole entry): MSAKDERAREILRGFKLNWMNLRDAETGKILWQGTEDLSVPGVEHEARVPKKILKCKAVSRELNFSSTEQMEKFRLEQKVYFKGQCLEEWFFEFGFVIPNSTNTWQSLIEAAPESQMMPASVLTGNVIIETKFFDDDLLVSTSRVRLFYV
T1 sequence (Q99PT1 2-204): as the sequence (P52565 2-204) above, with V70I, G73R, S80T, V161M, S175N, D200E counted along it
T5 sequence (Q99819 whole entry, species assumed): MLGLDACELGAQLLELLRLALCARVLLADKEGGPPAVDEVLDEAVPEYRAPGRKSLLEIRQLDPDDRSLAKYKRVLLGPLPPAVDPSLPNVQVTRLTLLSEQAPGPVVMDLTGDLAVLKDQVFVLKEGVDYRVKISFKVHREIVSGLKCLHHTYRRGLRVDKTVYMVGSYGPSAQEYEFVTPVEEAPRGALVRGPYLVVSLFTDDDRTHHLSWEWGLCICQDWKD
T3 sequence (P52566 whole entry, species assumed): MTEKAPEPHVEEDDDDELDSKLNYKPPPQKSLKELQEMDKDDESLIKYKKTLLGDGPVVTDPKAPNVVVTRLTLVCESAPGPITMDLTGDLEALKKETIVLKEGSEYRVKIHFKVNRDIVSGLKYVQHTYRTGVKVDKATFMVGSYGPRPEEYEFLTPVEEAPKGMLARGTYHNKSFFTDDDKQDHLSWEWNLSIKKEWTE

On to `CS(=O)(=O)c1ccc(C(=O)Nc2ccc(Cl)c(-c3ccccn3)c2)c(Cl)c1` [Vismodegib], for which the “Potency in osteogenesis in presence of 0.1 μM vs 1 μM SAG (in words)” value in test [1] is recorded as “decreased potency”.
Turning to `COC(=O)C1(C(CC(=O)c2ccccc2)c2ccc(C(=O)NCCOCCOCCN)cc2)N=C(c2ccc(Br)cc2)C2C(=O)N(C)C(=O)C21` (centres unmarked) [compound 8], in test [2], the “Ratio, RHO GDP-dissociation inhibitor 1 (Arhgdia)” value worked out at 33. For the same molecule, in [3] (setting [10]), the “Ratio, 60S ribosomal protein L32 (Rpl32)” value is 9; the “Ratio, ATPase inhibitor, mitochondrial (Atpif1)” value amounted to 4; the “Ratio, Filamin-B (Flnb)” value was 36; the “Ratio, Filamin-C (Flnc)” value amounted to 27. In addition, in test [3] (setting [10]), the “Ratio, Guanine nucleotide-binding protein subunit beta-2-like 1 (Gnb2l1)” value stood at 6; the “Ratio, Hsc70-interacting protein (St13)” value is listed as 4; the “Ratio, Ribosome-recycling factor, mitochondrial (Mrrf)” value turned out to be 3; the “Ratio, Tropomyosin alpha-4 chain (Tpm4)” value worked out at 4. Besides, in test [3] (probe 8 compared with control probe 9, NIH/3T3 lysates), the “Enrichment of proteins by probe, immunoblotting after pulldown (in words)” value was “selective enrichment of RHOGDI1”.
For the molecule `COC(=O)C1(C(CC(=O)c2ccccc2)c2ccc(C(=O)NCCOCCOCCNC(=O)CCc3ccc4n3[B-](F)(F)[N+]3=C(c5ccc[nH]5)C=CC3=C4)cc2)N=C(c2ccc(Br)cc2)C2C(=O)N(C)C(=O)C21` (centres unmarked) [compound 10], the Kd is 3.1 to 8.5 µM in test [4]; 8.51 µM in test [5]; 9.08 µM in [6]; 3.09 µM in test [7]; 11.5 µM in test [8]. In addition, the “Binding of probe to PDEδ (in words)” value in [9] is “binds to PDEδ only at higher concentrations”.
